Assay results: patent US20250248936A1 (priority 2022, published 2025)
Several values for one entry are separate records, joined by “and”; a condition that tells them apart may be missing. Equal values may be shown once.

Tests used:
Type in all cases: in vivo, female turkeys
[1] = tested on: H. meleagridis; experiment: Controlling Histomoniasis in turkeys (QSC HD 1500 ppm); conditions: MED 30 mg/kg bird/day
Experimental: A total of 160 3-week-old female turkeys were randomly grouped into 10 pens. The groups were: control (−) CON, control (+) POS, metronidazole (MED), two groups treated with QSC at 1500 ppm (HD greater dose than in the previous trial). The CON group was not challenged or treated with any product; POS control was only inoculated with a H. meleagridis suspension, and the MED group was inoculated with the same dose and treated with metronidazole, 30 mg/kg bird/day. […] Table 1208 summarizes bird distribution according to treatments, as well as the appropriate product dosage.
(§1) The treatments were started as of 3 weeks of age. The H. meleagridis challenge suspension was 100000 cell/mL, approximately, and was inoculated at 4 weeks of age, via cloacal route. Female turkey mortality rate was recorded throughout the trial, and lesions were measured by using a previously standardized lesion scoring at 8 weeks of age.

[2] = tested on: H. meleagridis; experiment: Controlling Histomoniasis in turkeys (QSC and QHS); conditions: MED 30 mg/kg bird/day; QHS 1500 ppm; QSC 750 ppm
Experimental: A total of 160 3-week-old female turkeys were randomly grouped into 10 pens. The groups were: control (−) CON, control (+) POS, MED (metronidazole), and two different treatments, (QSC and QHS's active content under treatment) is set). Control group (−) was not challenged or treated with any product, control (+) was only inoculated with a H. meleagridis suspension, and the MED group was inoculated with the same dose and treated with metronidazole, 30 mg/kg bird/day. […] Table 22 summarizes bird distribution according to treatments, as well as the appropriate product dosage.
as §1, with “suspension contained” for “suspension was”, “100000 cells/mL,” for “100000 cell/mL,”, “inoculated as of” for “inoculated at”, “age,” for “age, via”, “route. The female” for “route. Female”

[3] = tested on: H. meleagridis; experiment: Controlling Histomoniasis in turkeys (BQ batches 3250 ppm); conditions: MED 30 mg/kg bird/day; BQ-1, BQ-2, BQ-3 3250 ppm
Experimental: A total of 200 3-week-old young female turkeys were randomly grouped in 10 pens. The groups were: control (−) CON, control (+) POS, MED (metronidazole), 3 groups treated with BQ. BQ is a quillay wood-based additive where three different batches were evaluated with (2.5-5.5%) saponins.
as §1, with “suspension contained” for “suspension was”, “100000 cell/ml,” for “100000 cell/mL,”, “route. The female” for “route. Female”

[4] = tested on: H. meleagridis; experiment: Controlling Histomoniasis in turkeys (QSC, QS15 750 ppm); conditions: MED 30 mg/kg bird/day, QSC 750 ppm
Experimental: A total of 200 3-week-old female turkeys were randomly grouped into 9 pens. The groups were: control (−) (CON), control (+) (POS), metronidazole (MED), two 750 PPM QSC-treated groups, and two groups treated with 750 PPM QS15-treated groups. The CON group was not challenged or treated with any product, POS was only inoculated a H. meleagridis suspension, and the MED group was inoculated with the same dose and treated with 30 mg/kg metronidazole per bird/day. The CON group was comprised of 16 young female turkeys, while the remainder comprised 23 each. Table 17 summarizes the bird distribution according to treatment, as well as the appropriate product dosage.
The treatments were started at 3 weeks of age. The H. meleagridis challenge suspension had approximately 100000 cells/mL and was inoculated at 4 weeks of […] age. Weight was measured at 3, 6 and 8 weeks of age. Feed intake was estimated at 6 and 8 weeks of age. The young female turkey mortality rate was recorded throughout the trial, and lesions were measured by using a previously standardized lesion scoring at 8 weeks of age.

SMILES: Cc1ncc([N+](=O)[O-])n1CCO [MED, metronidazole]
- Cecum lesion score [1]: 1.3b
- Liver lesion score [1]: 0.28ab
- Mortality (%) [1]: 10% and 10a %
- Cecum lesion score [2]: 1.5c
- Liver lesion score [2]: 0.3a
- Mortality (%) [2]: 25% and 25.00ab %
- Cecum lesion score [3]: 0.85a
- Liver lesion score [3]: 0.5ab
- Mortality (%) [3]: 10% and 10.00ab %
- Cecum lesion score [4]: 0.2a
- Liver lesion score [4]: 0.0a
- Mortality (%) [4]: 2% and 2a %
